System: tetrabenazine-induced hypothermia
Experiment: In vivo tetrabenazine-induced hypothermia test
Conditions: oral gavage 60 minutes before TBZ i.p.; ICR male mice
Description: FIG. 1 depicts in vivo tetrabenazine-induced hypothermia test. Imipramine (positive control), PDC-1421, 1st Fraction 10-19, 1st Fraction 33, 2nd Fraction-1 (the major components are polygalatenosides A/B/C), 2nd Fraction-3, TMCA, Polygalaxanthone III, Onjisaponin B, Sibiricose A5, 7-O-Methylmangiferin and Sibiricaxanthone B are administered as test substances and the temperature recovery (%) is documented as shown in figure. The around 70% of PDC-1421 in Example 1 are composed of sucroester (34%), saponin (18%) and xanthone (17%). Some active compounds of powder product in Example 1, polygalatenosides A/B/C (2nd fraction 1), ploygalaxanthone III, sibiricoses A5, and 7-O-methylmangiferin are also discovered through in vivo tetrabenazine-induced hypothermia test (one of rodent models for evaluating antidepressant-like activity in mice). Imipramine (positive control), PDC-1421, 1st Fraction 10-19, 1st Fraction 33, 2nd Fraction-1 (the major components are polygalatenosides A/B/C), 2nd Fraction-3, TMCA, Polygalaxanthone III, Onjisaponin B, Sibiricose A5, 7-O-Methylmangiferin and Sibiricaxanthone B were dissolved in water for injection (WFI) and administered by oral gavage. The dosing volume was 10 mL/kg. Test substances and vehicle (WFI) were administered by oral gavage to groups of 8 ICR male mice weighing 23±3 g 60 minutes before intraperitoneal injection of tetrabenazine (TBZ, 85 ma/kg). Body temperature was recorded before (0 min), and 60, 90 and 120 min after TBZ challenge.

With COc1cc2c(=O)c3c(O)c([C@@H]4O[C@H](CO)[C@@H](O)[C@H](O)[C@H]4O)c(O)cc3oc2cc1O [7-O-methylmangiferin] the “activity in tetrabenazine-induced hypothermia test (temperature recovery)” value (from here on “activity”) was “active”.
For COc1cc2c(=O)c3c(O)c([C@@H]4O[C@H](CO[C@@H]5OC[C@](O)(CO)[C@H]5O)[C@@H](O)[C@H](O)[C@H]4O)c(O)cc3oc2cc1O [ploygalaxanthone III], the “activity” value was “active”.
For COc1cc(/C=C/C(=O)O[C@H]2[C@H](O)[C@@H](CO)O[C@@]2(CO)O[C@H]2O[C@H](CO)[C@@H](O)[C@H](O)[C@H]2O)ccc1O [sibiricoses A5], the “activity” value was “active”.
